Reference: patent US8097585B2, “Methods of treating inflammation by administration of heme oxygenase-1 and products of heme degradation” (priority 2002, dated 2012)
Counter-ions that a name gives are not always drawn.

Key:
[1] = system: HO-1; assay: HO-1 induction during intestinal I/R injury; type: in vivo, LEW rats; details: BV treatment
Experimental: HO-1 Induction During Intestinal I/R Injury. Since HO-1 regulates heme catalysis and BV production, exogenously provided BV may influence endogenous HO-1 induction in BV-treated recipients. In the normal intestine, HO-1 protein expression was absent. Ischemia/reperfusion injury was associated with a gradual increase of HO-1 expression in air-treated grafts, reaching maximum level between 6 and 24 hours following reperfusion.

[2] = system: iNOS; assay: Real time RT-PCR of graft muscularis after SITx, iNOS; type: in vivo, LEW rats
Experimental: Small Intestinal Transplantation. Orthotopic small intestinal transplantation (SITx) was performed in syngeneic Lewis rats. SITx with caval drainage was performed using a previously described procedure (Murase et al., in Handbook of Animal Models in Transplantation Research, Cramer et al., Eds. CRC Press, Boca Raton, Fla., pp. 203-213 (1994)). […] The graft was perfused via the aortic segment with 5 ml chilled Ringer's lactate solution, and the intestinal lumen was irrigated with 20 ml of cold saline solution containing 0.5% neomycin-sulfate (Sigma, St. Louis, Mo.). […]
SYBR green real time RT-PCR. The effects of administration of biliverdin on transplant-induced pro-inflammatory and anti-inflammatory gene expression were assessed in muscularis extracts by RT-PCR Biliverdin ([…], i.p.) was administered to both the donor and recipient three hours preoperatively. […] Equal aliquots (5 μg) of total RNA from each sample were quantified by spectrophotometry (wavelength […]) and aliquoted at a concentration of 40 ng/μl. Peak mRNA expression was quantified in duplicate by SYBR Green two-step, real-time RT-PCR. […] Real-time PCR data were plotted as the ΔRn fluorescence signal versus the cycle number. […] Quantification of mRNA expression was normalized to GAPDH and calculated relative to control using the comparative CT method (Schmittgen et al., J. Biochem. Biophys. Methods 46(1-2):69-8, 2000). […]

[3] = system: B6AF1 splenocytes or purified T cells; assay: Con A and anti-CD3 mAb mediated proliferation assay; type: cell-based, mouse
Experimental: Con A and anti-CD3 mAb mediated proliferation assay. B6AF1 splenocytes or purified T cells were prepared according to the herein-described method and used as responder cells. Responders (2.5×10^5/well) were stimulated with either Con A (1 μg/ml) or anti-CD3 mAb (1 μg/ml) and cultured in a 96 well round bottom plates. Purified T cells (5×10^4/well) were cultured in anti-CD3 mAb (10 μg/ml) coated 96 well flat bottom plates in the presence of anti-CD28 mAb (1 μg/ml). Cells were cultured with or without biliverdin (at various concentrations) for 48 hours at 37° C., 95% air with 5% CO2. They were pulsed with ^3H-thymidine (1 μCi/well) 16 hours before termination of cell culture and ^3H-thymidine incorporation was measured by using a β-counter. These proliferation assays were performed in triplicate and were repeated 3 times.

[4] = system: MPO positive cells in intestinal muscularis; assay: Leukocyte recruitment into intestinal muscularis (MPO histochemistry); type: in vivo, LEW rats
Experimental: Small Intestinal Transplantation. Orthotopic small intestinal transplantation (SITx) was performed in syngeneic Lewis rats. SITx with caval drainage was performed using a previously described procedure (Murase et al., in Handbook of Animal Models in Transplantation Research, Cramer et al., Eds. CRC Press, Boca Raton, Fla., pp. 203-213 (1994)). […] The graft was perfused via the aortic segment with 5 ml chilled Ringer's lactate solution, and the intestinal lumen was irrigated with 20 ml of cold saline solution containing 0.5% neomycin-sulfate (Sigma, St. Louis, Mo.). End-to-side anastomoses between the graft aorta and the recipient infrarenal aorta, and between the graft portal vein and recipient vena cava, were performed with 10-0 Novafil™ suture. The cold ischemic time was 1 hour. The entire recipient intestine was removed and the enteric continuity was restored by proximal and distal end-to-end intestinal anastomoses. Recipient animals were given 20 mg/day prophylactic cefamandole nafate for 3 postoperative days. Transplanted recipients were given water 3 hours after surgery, and were fed 24 hours after surgery.
Leukocyte Recruitment. […] Myeloperoxidase (MPO) activity, as determined by Hanker-Yates histochemistry, was used to quantify the polymorphonuclear neutrophil (PMN) infiltrate in tissues from control and transplanted animals, with and without BV treatment. […]

Q: Which “intestinal HO-1 production” value [1] does the source give for `C=CC1=C(C)/C(=C/C2=NC(=C\c3[nH]c(/C=C4\NC(=O)C(C)=C4C=C)c(C)c3CCC(=O)O)/C(CCC(=O)O)=C2C)NC1=O` [biliverdin, biliverdin dihydrochloride] here?
A: did not have a significant effect

Q: And the “reduction of mean relative iNOS mRNA expression” value ([2]; BV treated rats, graft muscularis)?
A: approximately 50%

Q: What about the “mRNA expression of iNOS or COX-2” value ([2]; BV treatment of unoperated control animals) of the same compound?
A: did not alter

Q: And the “proliferation of purified T cells” value ([3]; anti-CD3 mAb plus anti-CD28 mAb co-stimulation)?
A: suppressed

Q: And the “ConA or anti-CD3 mAb driven T cell proliferation” value ([3]; biliverdin 50 μM)?
A: significant suppressive effect

Q: What about the “ConA or anti-CD3 mAb driven T cell proliferation” value ([3]; biliverdin 100 μM) of the same compound?
A: significant suppressive effect

Q: And the “mean number of MPO positive cells” value ([4]; 24 hours after SITx)?
A: significantly decreased

Q: What about the MPO positive cells ([4]; BV injection into normal animals) of the same compound?
A: 3.9±1.3 cells per ×200 field
